Experiments:
[1] = system: Hepatocyte; test: Hepatoprotective activity against CCl4/GaIN-induced cytotoxicity in rat hepatocytes assessed as decrease in GPT level at 1.0 ug/mL relative to control; format: functional; design: scale not given: the % may be the effect or the level left; conditions: dose 1 µg/ml
[2] = Hepatotoxicity in D-GaIN induced Wistar rat assessed as change in induction of TAT level for 10 days relative to control; format: toxicity; design: concentration or dose not given beside the values; conditions: in vivo, 240 h, time 10 day
[3] = species: Mus musculus; test: Hepatoprotective activity against D-galactosamine-induced liver injury mouse model assessed as […] leakage at 50 ug/ml; format: functional; conditions: dose 50 µg/ml
[4] = Hepatotoxicity in D-GaIN induced Wistar rat assessed as change in GTP leakage level for 10 days relative to control; format: toxicity; conditions: in vivo, 240 h, time 10 day
[5] = system: Hepatocyte; test: Hepatoprotective activity against CCL4-induced rat hepatocyte toxicity assessed as decrease in GPT level at 3.33 mg/mL preincubated for 30 mins followed by CCL4 addition and measured after 180 mins by colorimetric method; format: functional; conditions: time 210 min, 3.5 h
[6] = system: Hepatocyte; test: Hepatoprotective activity against CCL4-induced rat hepatocyte toxicity assessed as decrease in ALP level at 3.33 mg/mL preincubated for 30 mins followed by CCL4 addition and measured after 180 mins by colorimetric method; format: functional; conditions: time 210 min, 3.5 h
[7] = system: Hepatocyte; test: Hepatoprotective activity against CCL4-induced rat hepatocyte toxicity assessed as decrease in GOT level at 3.33 mg/mL preincubated for 30 mins followed by CCL4 addition and measured after 180 mins by colorimetric method; format: functional; conditions: time 210 min, 3.5 h
[8] = system: Hepatocyte; test: Hepatoprotective activity against D-GaIN/TNFalpha-induced cell death in mouse hepatocyte at 100 uM; format: functional, cell-based
[9] = system: Hepatocyte; test: Hepatoprotective activity against D-GaIN/TNFalpha-induced cell death in mouse hepatocytes at 50 uM assessed as inhibition of cell death relative to control; format: functional; design: scale not given: the % may be the effect or the level left
[10] = Cytotoxicity against human HepG2 cells assessed as reduction in cell viability by SRB assay; format: toxicity, cell-based
[11] = system: Hepatocyte; test: Hepatoprotective activity against D-GaIN/TNFalpha-induced cell death in mouse hepatocyte at 100 uM relative to control; format: functional, cell-based; conditions: Mus musculus, Hepatocyte
[12] = system: Hepatocyte; test: Hepatoprotective activity against D-GaIN-induced toxicity in mouse hepatocyte relative to control; format: functional, cell-based
[13] = system: HepG2; test: Cytoprotective activity against t-BHP induced cell death in human HepG2 cells assessed as cell survival rate at 10 uM relative to control; format: functional
[14] = system: Hepatocyte; test: Hepatoprotective activity against D-GaIN/TNFalpha -induced cell death in mouse hepatocyte assessed as inhibition at 50 uM relative to control; format: functional; design: scale not given: the % may be the effect or the level left
[15] = system: Mus musculus; test: Hepatoprotective activity against CCl4-induced liver injury mouse model assessed as reduction in ALT at 20 ug/mL, ip relative to control (reference value: 13.23 IU/L); format: functional; conditions: dose 20 µg/ml
[16] = system: Mus musculus; test: Hepatoprotective activity against CCl4-induced liver injury mouse model assessed as reduction in MDA level at 20 ug/mL, ip relative to control (reference value: 9.27 IU/L); format: functional; conditions: dose 20 µg/ml
[17] = system: Mus musculus; test: Hepatoprotective activity against CCl4-induced liver injury mouse model assessed as increase in SOD level at 20 ug/mL, ip relative to control (reference value: 5.89 IU/L); format: functional; conditions: dose 20 µg/ml
[18] = system: Mus musculus; test: Hepatoprotective activity against CCl4-induced liver injury mouse model assessed as reduction in AST at 20 ug/mL, ip relative to control (reference value: 9.27 IU/L); format: functional; conditions: dose 20 µg/ml
[19] = system: Huh-7; test: Hepatoprotective activity against CCL4-induced mouse model in human Huh-7 cells assessed as decrease in ALT level at 100 ug/mL; format: functional; conditions: dose 100 µg/ml
[20] = species: Mus musculus; test: Hepatoprotective activity against D-GaIN-induced liver injury mouse model assessed as cell death with increasing cell survival rates at 10 uM relative to control; format: functional
[21] = Hepatotoxicity in CCl4-induced ICR mouse model assessed as change in SOD level, po measured after 7 days; format: toxicity, organism-based; conditions: in vivo, 168 h, time 7 day
[22] = Hepatotoxicity in DMF-induced ICR mouse model assessed as change in GSH-PX level, po measured after 7 days; format: toxicity, organism-based; conditions: in vivo, 168 h, time 7 day
[23] = Hepatotoxicity in CCl4-induced ICR mouse model assessed as change in GSH-PX level, po measured after 7 days; format: toxicity, organism-based; conditions: in vivo, 168 h, time 7 day
[24] = Hepatotoxicity in DMF-induced ICR mouse model assessed as change in SOD level, po measured after 7 days; format: toxicity, organism-based; conditions: in vivo, 168 h, time 7 day
[25] = Hepatotoxicity in CCl4-induced ICR mouse model assessed as change in CAT level, po measured after 7 days; format: toxicity, organism-based; conditions: in vivo, 168 h, time 7 day
[26] = Hepatotoxicity in DMF-induced ICR mouse model assessed as change in CAT level, po measured after 7 days; format: toxicity, organism-based; conditions: in vivo, 168 h, time 7 day
[27] = species: Mus musculus; test: Hepatoprotective activity in CCl4-induced mouse assessed as change in SGPT level (reference value: 6.9 mmol/L); format: functional
[28] = system: L02; test: Protection against D-GalN-induced toxicity in L02 cells […] assessed as reduction in cell growth at 6.25 microg/ml relative to control; format: functional, Homo sapiens; design: scale not given: the % may be the effect or the level left; conditions: dose 6.25 µg/ml
[29] = system: L02; test: Protection against D-GalN-induced toxicity in L02 cells […] assessed as reduction in cell growth relative to control; format: functional, Homo sapiens; design: scale not given: the % may be the effect or the level left
[30] = system: Hepatocyte; test: Protection against CCL4-induced rat hepatocyte toxicity assessed as reduction in ALT level at 90 uM relative to control; format: functional; design: scale not given: the % may be the effect or the level left

CC1(C)CC[C@]2(C(=O)O[C@@H]3O[C@H](CO)[C@@H](O)[C@H](O)[C@H]3O)CC[C@]3(C)C(=CC[C@@H]4[C@@]5(C)CC[C@H](O[C@@H]6O[C@H](C(=O)O)[C@@H](O)[C@H](O)[C@H]6O[C@@H]6OC[C@H](O)[C@H](O)[C@H]6O)C(C)(C)[C@@H]5CC[C@]43C)[C@@H]2C1
Activity [1]: 28%

CC1(C)CC[C@]2(C)CC[C@]3(C)C(=CC[C@@H]4[C@@]5(C)CC[C@@H](O)C(C)(C)[C@@H]5CC[C@]43C)[C@@H]2C1
Activity [2]: 70.2% | Activity [3]: 60.8% | Activity [4]: 5.3%

CC(=O)O[C@H]1CC[C@]2(C)[C@H]3CC=C4[C@@H]5CC(C)(C)CC[C@]5(C(=O)O)CC[C@@]4(C)[C@]3(C)CC[C@H]2C1(C)C [ACETYL OLEANOLIC ACID]
Activity [5]: 17.5 IU/L | Activity [6]: 16.1 IU/L | Activity [7]: 27.8 IU/L

COc1cc([C@H]2Oc3cc([C@H]4Oc5cc(O)cc(O)c5C(=O)[C@@H]4O)ccc3O[C@@H]2CO)ccc1O [SILYBIN A]
IC50 [8]: 33.6 µM | Activity [9]: 61.2% | EC50 [10]: 75.7 µM | IC50 [11]: 29.9 µM | IC50 [12]: 38.8 µM | Activity [13]: 52.5% | Activity [14]: 61.2%

C[C@@H]1CC[C@]2(C(=O)O)CC[C@]3(C)C(=CC[C@@H]4[C@@]5(C)[C@H](O)[C@@H](O)[C@@H](O)C(C)(C)[C@@H]5CC[C@]43C)[C@@H]2[C@]1(C)O
Activity [15]: 4.75 IU/L | Activity [16]: 3.84 nmol/mL | Activity [17]: 21.9 U/ml | Activity [18]: 4.24 IU/L

CC1(C)CC[C@]2(CO)CC[C@]3(C)C(=CC[C@@H]4[C@@]5(C)CC[C@H](O)C(C)(C)[C@@H]5CC[C@]43C)[C@@H]2C1 [ERYTHRODIOL]
Activity [19]: 40.2 U/ml

CC(=O)O[C@H](C/C=C(/C)C(=O)O)[C@@H](C)[C@H]1CCC2(C)[C@@H]3CC[C@H]4C(C)(C)C(=O)CC[C@@]45C[C@@]35CC[C@]12C (stereo not given in full)
Activity [20]: 30.8%

C[C@@H]1O[C@@H](O[C@H]2[C@H](OC(=O)[C@]34CCC(C)(C)C[C@H]3C3=CC[C@@H]5[C@@]6(C(=O)O)CC[C@H](O)[C@@](C)(C(=O)O)[C@@H]6CC[C@@]5(C)[C@]3(C)CC4)O[C@H](C)[C@H](O)[C@@H]2O)[C@H](O)[C@H](O)[C@H]1O[C@@H]1O[C@H](CO)[C@@H](O[C@@H]2OC[C@@H](O)[C@H](O)[C@H]2O)[C@H](O)[C@H]1O
Activity [21]: 193.68 U/mg | Activity [22]: 59.57 U/mg | Activity [23]: 67.77 U/mg | Activity [24]: 196.16 U/mg | Activity [25]: 85.63 U/mg | Activity [26]: 81.85 U/mg

CC1(C)CC[C@]2(C(=O)O)CC[C@]3(C)C(=CC[C@@H]4[C@@]5(C)CCC(OC(=O)/C=C/c6ccc(O)c(O)c6)C(C)(C)[C@@H]5CC[C@]43C)[C@@H]2C1 (stereo not given in full)
Activity [27]: 3.53 mmol/L

CC(C)[C@]1(CO[C@@H]2O[C@H](CO)[C@@H](O)[C@H](O)[C@H]2O)CC[C@@H]([C@H]2[C@H](O)C[C@]3(C)[C@@H]2CC[C@@H]2[C@@]4(C)CC[C@H](O[C@@H]5O[C@H](CO)[C@@H](O)[C@H](O)[C@H]5O[C@@H]5O[C@H](CO)[C@@H](O)[C@H](O)[C@H]5O)C(C)(C)[C@@H]4CC[C@]23C)O1
Activity [28]: 14.7% | Activity [29]: 28.2%

C[C@@H]1O[C@@H](O[C@H]2[C@H](O[C@H]3CC[C@]4(C)[C@H]5CC=C6[C@@H]7CC(C)(C)CC[C@]7(C(=O)O[C@@H]7O[C@H](CO)[C@@H](O[C@@H]8O[C@H](CO)[C@@H](O)[C@H](O)[C@H]8O)[C@H](O)[C@H]7O[C@@H]7O[C@H](CO)[C@@H](O)[C@H](O)[C@H]7O)[C@H](O)C[C@@]6(C)[C@]5(C)CC[C@H]4C3(C)C)O[C@H](CO)[C@@H](O)[C@@H]2O)[C@H](O)[C@H](O)[C@H]1O
Activity [30]: 4%

— ChEMBL document CHEMBL5260832, “Hepatoprotective natural triterpenoids” (Eur J Med Chem, 2018)
